Data set [1] concerns 1X-Ab. In words: Competitive antigen ELISA, cross-reactivity of 1X-Ab. The following applies: for % Cross-Reaction 1X-Ab: competitive antigen ELISA, 0 = absence of inhibition or inhibition no higher than 40% at highest concentration tested (5×10^−3 M). The class given is binding, rabbit. How it is done: (§1) Competitive Antigen ELISA
(§2) Buffers and water without additives are filtered through millipore filters and kept for 1 week. BSA, antibodies, Tween™ 20 and horse radish peroxidase conjugates are added to these buffers and water just prior to use. Urine samples are usually collected 4 hours after drinking a cup of coffee (instant or brewed with approximately 100 mg of caffeine per cup) and stored at −80° C. The urine samples are diluted 10 times with sodium phosphate buffer (620 mosm, pH 7.50) and are subsequently diluted with water to give concentrations of AAMU and 1X no higher than 3×10^−6 M in the ELISA. All the pipettings are done with an eight-channel pipette, except those of the antibody and sample solutions. Starting with the last well, 100 μL of a carbonate buffer (100 mM, pH 9.6) containing 2.5 μg mL-1 antibodies are added to each well. After 90 min. at room temperature, the wells are washed three times with […] of TPB: isotonic sodium phosphate buffer (310 mosm, pH 7.50) containing 0.05% Tween™ 20.
(§3) After the initial wash, unoccupied sites are blocked by incubation for 90 min. at room temperature with 100 μL TBP containing 3% BSA. The wells are washed four times with 100 μL TPB. […] The microplate is gently shaken with an orbital shaker at room temperature for 3-4 hours. The wells are washed three times with 100 μL TPB containing 1% BSA and three times with water containing 0.05% Tween™ 20. To the washed plate is added 150 μL of a substrate buffer composed of citric acid (25 mM) and sodium phosphate dibasic buffer (50 mM, pH 5.0) containing 0.06% hydrogen peroxide and 0.04% o-phenylenediamine hydrochloride.
(§4) Buffers and water without additives were filtered through millipore filters and kept for 1 week. BSA, antibodies, Tween™ 20 and horse radish peroxidase conjugates were added to these buffers and water just prior to use. Urine samples were usually collected 4 hours after drinking a cup of coffee (instant or brewed with approximately 100 mg of caffeine per cup) and stored at −80° C. They were diluted 10 times with sodium phosphate buffer (620 mosm, pH 7.50) and were subsequently diluted with water to give concentrations of AAMU and 1X no higher than 3×10^−6 M in the ELISA. All the pipettings were done with an eight-channel pipette, except those of the antibody and sample solutions. Starting with the last well, 100 μL of a carbonate buffer (100 mM, pH 9.6) containing 2.5 μg mL-1 antibodies was pipetted. After 90 min. at room temperature, the wells were washed three times with 100 μL of TPB: isotonic sodium phosphate buffer (310 mosm, pH 7.50) containing 0.05% Tween™ 20.
(§5) After the initial wash, unoccupied sites were blocked by incubation for 90 min. at room temperature with […] TBP containing 3% BSA. The wells were washed four times with 100 μL TPB. […] The microplate was gently shaken with an orbital shaker at room temperature for 3-4 hours. The wells were washed three times with 100 μL with TPB containing 1% BSA and three times with water containing 0.05% Tween™ 20. To the washed plate was added 150 μL of a substrate buffer composed of citric acid (25 mM) and sodium phosphate dibasic buffer (50 mM, pH 5.0) containing 0.06% hydrogen peroxide and 0.04% o-phenylenediamine hydrochloride. After 20 min. at room temperature with shaking, the reaction was stopped with 50 μL of 2.5 N HCl.
(§6) The cross reactivities of AAMU-Ab and 1X-Ab were tested using a wide variety of caffeine metabolites and structural analogs (Table 2 below).

Data set [2] deals with AAMU-Ab. In words: Competitive antigen ELISA, cross-reactivity of AAMU-Ab. The class given is binding, rabbit. The following applies: for % Cross-Reaction AAMU-Ab: competitive antigen ELISA, 0 = absence of inhibition or inhibition no higher than 40% at highest concentration tested (5×10^−3 M). How it is done: as §1, §2, §3, §4, §5, §6
For data set [3] the following is noted: cited from earlier work.
For data set [4] the following is noted: healthy volunteers; cited from earlier work.
Data set [5] relates to S. pneumoniae. The following applies: once a day for 10 days, acute bacterial exacerbation of chronic bronchitis; cited from earlier work.
For data set [6] the following is noted: cited from earlier work. This is another data set of the same source.

Like-named read-outs stand apart in the source and are kept apart here. Marks after values point to notes of the source that are not given here. A value given as a limit tells only on which side of the number the result lay.

With `Cn1c(=O)c2c(ncn2C)n(C)c1=O` [1,3,7-Trimethyl Xanthine (Caffeine), 1,3,7-Trimethyl Xanthine], in data set [1], the “% Cross-Reaction 1X-Ab” value amounted to 0%. Moreover, the “% Cross-Reaction AAMU-Ab” value in data set [2] is on record as 0%.

Consider `Cn1c(=O)c2[nH]cnc2n(C)c1=O` [1,3-Dimethyl Xanthine (Theophylline), 1,3-Dimethyl Xanthine], for which the “% Cross-Reaction 1X-Ab” value in data set [1] was determined as 0.2%. Moreover, in data set [2], the “% Cross-Reaction AAMU-Ab” value was found to be 0%.

As to `Cn1c(=O)[nH]c2ncn(C)c2c1=O` [1,7-Dimethyl Xanthine (Paraxanthine), 1,7-Dimethyl Xanthine], the “% Cross-Reaction 1X-Ab” value in data set [1] is 0.5%. The “% Cross-Reaction AAMU-Ab” value in data set [2] came out at 0%.

With `Cn1c(=O)[nH]c2[nH]c(=O)n(C)c2c1=O` [1,7-Dimethyluric acid], the “% Cross-Reaction 1X-Ab” value in data set [1] was determined as 0%. For the same compound, the “% Cross-Reaction AAMU-Ab” value in data set [2] turned out to be 0%.

For `Cn1c(=O)[nH]c2nc[nH]c2c1=O` [1-Methyl Xanthine (1X), 1-Methyl Xanthine], the “% Cross-Reaction 1X-Ab” value in data set [1] was found to be 100%. Besides, in data set [1] (read-out: concentration required for 50% inhibition in the competitive antigen ELISA, 1X-Ab, 1X-HRP conjugate), the IC50 was determined as 10 µM. In addition, the “% Cross-Reaction AAMU-Ab” value in data set [2] stood at 0%.

`Cn1c(=O)[nH]c2[nH]c(=O)[nH]c2c1=O` [1-Methyluric acid]: the “% Cross-Reaction 1X-Ab” value in data set [1] is 11%. Further, the “% Cross-Reaction AAMU-Ab” value in data set [2] came out at 0%.

Take `Cn1cnc2c1c(=O)[nH]c(=O)n2C` [3,7-Dimethyl Xanthine (Theobromine), 3,7-Dimethyl Xanthine]: the “% Cross-Reaction 1X-Ab” value in data set [1] was 0%. Moreover, the “% Cross-Reaction AAMU-Ab” value in data set [2] amounted to 0%.

With `Cn1c(=O)[nH]c(=O)c2[nH]cnc21` [3-Methyl Xanthine], the “% Cross-Reaction 1X-Ab” value in data set [1] is 0%. In addition, the “% Cross-Reaction AAMU-Ab” value in data set [2] was 0%.

With `CC(=O)Nc1c(N)n(C)c(=O)n(C)c1=O` [5-Acetamino-6-amino-1,3-dimethyluracil], in data set [1], the “% Cross-Reaction 1X-Ab” value was 0%. In addition, the “% Cross-Reaction AAMU-Ab” value in data set [2] worked out at 0%.

As for `CC(=O)Nc1c(N)n(C)c(=O)[nH]c1=O` [5-Acetamino-6-amino-1-methyluracil], the “% Cross-Reaction 1X-Ab” value in data set [1] was found to be 0%. In data set [2], the “% Cross-Reaction AAMU-Ab” value is 100%. For the same compound, in data set [2] (read-out: concentration required for 50% inhibition in the competitive antigen ELISA, AAMU-Ab, AAMU-HRP conjugate), the IC50 is 1.5 µM.

For `CC(=O)Nc1c(N)[nH]c(=O)[nH]c1=O` [5-Acetamino-6-amino-uracil], the “% Cross-Reaction 1X-Ab” value in data set [1] was 0%. For the same compound, the “% Cross-Reaction AAMU-Ab” value in data set [2] is recorded as 0.6%.

For `Cn1cnc2[nH]c(=O)[nH]c(=O)c21` [7-Methyl Xanthine], the “% Cross-Reaction 1X-Ab” value in data set [1] worked out at 0%. Also, the “% Cross-Reaction AAMU-Ab” value in data set [2] is 0%.

Turning to `Cc1nc2[nH]c(=O)[nH]c(=O)c2[nH]1` [8-Methyl Xanthine], the “% Cross-Reaction 1X-Ab” value in data set [1] is given as 0%. Besides, the “% Cross-Reaction AAMU-Ab” value in data set [2] is given as 0%.

`CC1(C)S[C@@H]2[C@H](NC(=O)Cc3ccccc3)C(=O)N2[C@H]1C(=O)O.CC1(C)S[C@@H]2[C@H](NC(=O)Cc3ccccc3)C(=O)N2[C@H]1C(=O)O.c1ccc(CNCCNCc2ccccc2)cc1` [Benzathine penicillin G]: in data set [3] (human, in vivo), the “duration of low sustained serum levels of penicillin G” value was 1-3 weeks.

Consider `O=C(N[C@H](CO)[C@H](O)c1ccc([N+](=O)[O-])cc1)C(Cl)Cl` [Chloramphenicol], for which, in data set [3] (human, in vivo), the “CSF concentrations as % of serum levels” value is listed as 30-50%.

Take `C[C@H]1c2cccc(O)c2C(=O)C2=C(O)[C@]3(O)C(=O)C(C(N)=O)=C(O)[C@@H](N(C)C)[C@@H]3[C@@H](O)[C@@H]21` [Doxycycline]: in data set [3] (human, in vivo), the serum half-life is 17 to 20 h.

As for `Cc1c(F)c(N2CCNC(C)C2)cc2c1c(=O)c(C(=O)O)cn2C1CC1` (stereo not drawn) [Grepafloxacin, grepafloxacin], the “time to peak plasma drug concentration after dosing” value in data set [3] (human, in vivo) was 2 to 3 h. For the same compound, the “time to steady state concentrations” value in data set [3] (once-a-day dosing) is recorded as at most 7 days. For the same compound, the bioavailability result in data set [3] (oral) is reported as “approximately 70%”. The “effect on QTc interval” value in data set [4] was “Prolongation of the QTc Intervals has been observed”. In addition, in data set [5], the “effectiveness against S. pneumoniae, 400 mg per day vs 600 mg per day” value is “may be less effective”.

Take `Nc1nc2nc[nH]c2c(=O)[nH]1` [Guanine]: in data set [1], the “% Cross-Reaction 1X-Ab” value is on record as 0%. Moreover, in data set [2], the “% Cross-Reaction AAMU-Ab” value was found to be 0%.

As to `O=c1[nH]cnc2nc[nH]c12` [Hypoxanthine], the “% Cross-Reaction 1X-Ab” value in data set [1] is 0%. The “% Cross-Reaction AAMU-Ab” value in data set [2] is 0%.

In the case of `O=c1cc[nH]c(=O)[nH]1` [Uracil], in data set [1], the “% Cross-Reaction 1X-Ab” value worked out at 0%. Further, in data set [2], the “% Cross-Reaction AAMU-Ab” value is 0%.

`O=c1[nH]c(=O)c2[nH]c(=O)[nH]c2[nH]1` [Uric acid]: the “% Cross-Reaction 1X-Ab” value in data set [1] amounted to 0%. Further, the “% Cross-Reaction AAMU-Ab” value in data set [2] was found to be 0%.

Consider `O=c1[nH]c(=O)c2[nH]cnc2[nH]1` [Xanthine], for which, in data set [1], the “% Cross-Reaction 1X-Ab” value came to 0%. The “% Cross-Reaction AAMU-Ab” value in data set [2] is listed as 0^a %.

With `Nc1ccc(S(=O)(=O)c2ccc(N)cc2)cc1` [dapsone], the “adverse reactions to dapsone” value in data set [6] (fast acetylators) is 17%; in data set [6] (slow acetylators), 46%.

These data come from patent US20030186339A1, “Individualization of therapy with antibiotic agents” (McGill University, priority 2001, published 2003).
